Where “and” joins values, the source holds several entries; their conditions need not be identical. Identical values can stand only once. Residues, ends and D or L forms follow the SMILES beside them.
How the values were obtained:
[1] = tested on: Gram-negative tested bacteria; experiment: micro-dilution and transplant on agar, summary over Gram-negative panel; assay type: cell-based; settings: almost all Gram-negative tested bacteria
Procedure: (§1) For each bacterial strain 3-5 morphologically similar colonies from fresh cultures were taken and inoculated in Brain Heart Infusion broth, then incubated at 37°C in agitation at 225 r.p.m. for about 3-4 hours. Then the bacterial suspension was centrifuged at 1000 G for 20 minutes and the pellet resuspended in phosphate buffer pH 7, 10 mM. The turbidity of the bacterial suspension was measured using a spectrophotometer with absorbance of 600 nm; the range 0.08-0.13 equates to about 10^8 cfu/ml. The bacterial suspension was diluted 1:100 in phosphate buffer 10mM to obtain a bacterial concentration of about 10^6 cfu/ml. Within 30 minutes 50 µl of the suspension (10^6 cfu/ml) were inoculated in each well of the microtiter plate, to obtain a bacterial concentration of about 5x10^5 cfu/ml.
The peptides ability to inhibit the bacterial growth in liquid cultures was tested. 50 µl of each peptides solutions of about 0,2-50 µM were added in microtiter plates with 96 wells with U-shaped bottom, containing the liquid culture medium and one of these bacterial strains: E coli ATCC 25922, Pseudomonas. […]
The bacterial suspension and peptides were put in contact for 2 hours at 37°C, with differing concentrations of the peptide. […] After an incubation time of 24 hours at 37°C, the bacterial colonies (cfu) were counted.

[2] = tested on: Streptococcus agalactiae ATCC 13813; experiment: micro-dilution in liquid medium and transplant on solid medium, Gram-positive bacteria; assay type: cell-based; settings: 2 hours at 37°C, transplant on agar
Procedure: as §1, with “0,08-0,13” for “0.08-0.13”, “10^6 cfu/ml” for “(10^6 cfu/ml)”
(§2) The peptides ability to inhibit the bacterial growth in liquid cultures was tested. 50 µl of each peptides solutions of about 0.2-50 µM were added in microtiter plates with 96 wells with liquid culture medium and one of these bacterial strains: Staphylococcus aureus ATCC 25923, MRSA ATCC 43300, Streptococcus agalactiae ATCC 13813 and Enterococcus hirae ATCC 10541. After 2 hours of incubation at 37°C, bacterial suspensions were put on solid culture medium. Bacterial cultures were cultivated without peptides as growth control.
(§3) The bacterial suspension and differing peptides concentrations were put in contact for about 2 hours at 37°C. After this incubation, 20 µl from each well of the plate were transplanted on solid culture medium, Columbia agar with 5% of bovine erythrocytes for Gram-positive bacteria. The inoculum was evenly distributed on the agar medium with the aid of a sterile disposable handle. After an incubation time of 24 hours at 37°C, the bacterial colonies (cfu) were counted.

[3] = tested on: Enterococcus hirae ATCC 10541; experiment: as above; assay type: cell-based; settings: 2 hours at 37°C, transplant on agar
Procedure: as §1, with “0,08-0,13” for “0.08-0.13”, “10^6 cfu/ml” for “(10^6 cfu/ml)”
as §2, §3

[4] = tested on: Staphylococcus aureus ATCC 22953; experiment: as above; assay type: cell-based; settings: 2 hours at 37°C, transplant on agar
Procedure: as §1, with “0,08-0,13” for “0.08-0.13”, “10^6 cfu/ml” for “(10^6 cfu/ml)”
as §2, §3

[5] = tested on: Pseudomonas aeruginosa ATCC 27853; experiment: antimicrobial activity in presence of NaCl; assay type: cell-based
Procedure: (§4) Peptides were tested in the ability to inhibit bacterial growth in liquid medium. 50 µl of peptides at a concentration […] E. coli ATCC 25922, Pseudomonas aeruginosa ATCC 27853 and Staphylococcus aureus methicillin resistant ATCC 43300. After 2 hours incubation at 37°C, bacteria were plated on solid culture medium. Bacterial cultures were cultivated without peptides as growth control.
(§5) The bacterial suspension and peptides at differing concentrations were put in contact for about 2 hours at 37°C. After this incubation, 20 µl from every well of the plate were transplanted on solid culture medium, McConkey agar for Gram-negative and Columbia agar with 5% of bovine erythrocytes for Gram-positive bacteria. The inoculum was evenly distributed on the agar medium using a single use sterile handle. After an incubation time of 24 hours at 37°C, the bacterial colonies (cfu) were counted.

MRSA ATCC 43300 = experiment: antimicrobial activity in presence of NaCl; assay type: cell-based, Staphylococcus aureus
Procedure: as §4, §5

[6] = tested on: Pseudomonas aeruginosa ATCC 27853; experiment: antimicrobial activity in presence of Muller-Hinton 20%; assay type: cell-based; settings: 20% of Muller-Hinton medium
Procedure: (§6) This example verifies the peptides antimicrobial activity in presence of a concentration of 20% of Muller-Hinton liquid medium, characterized by the presence of salts with high concentration.
(§7) Peptides were tested in the ability to inhibit bacterial growth in liquid medium. 50 µl of peptides at a concentration between 3.1 µg/ml (NCP-0=1.4µM; NCP-2=[…]; NCP-3=1.3 µM) and 100 µg/ml (NCP-0=46.3 µM; NCP-2=43.2 µM; NCP-3=41.6 µM) were added in microtiter plate wells with phosphate buffer 10 mM with Muller-Hinton liquid medium al the final concentration of 20% and one of these bacteria: E. coli ATCC 25922, Pseudomonas aeruginosa ATCC 27853, Staphylococcus aureus ATCC 25923 and Staphylococcus aureus methicillin resistant ATCC 43300. After 2 hours incubation at 37°C, bacteria were transplanted on solid culture medium. Bacterial cultures were cultivated without peptides as growth control.

E. coli ATCC 25922 = experiment: as above; assay type: cell-based; settings: 20% of Muller-Hinton medium
Procedure: as §6, §7

[7] = tested on: Staphylococcus aureus ATCC 25923; experiment: as above; assay type: cell-based; settings: 20% of Muller-Hinton medium
Procedure: as §6, §7

[8] = 125 mM NaCl, peptide 12.5 µg/ml
[9] = 250 mM NaCl, peptide 12.5 µg/ml

## CC[C@H](C)[C@H](NC(=O)[C@H](CCCCN)NC(=O)[C@H](Cc1ccc(O)cc1)NC(=O)[C@H](CS)NC(=O)[C@H](CC(C)C)NC(=O)[C@H](CC(N)=O)NC(=O)[C@H](CCCCN)NC(=O)CNC(=O)[C@H](C)NC(=O)[C@@H]1CCCN1C(=O)[C@H](CS)NC(=O)[C@@H](NC(=O)[C@H](CCCCN)NC(=O)[C@H](CO)NC(=O)[C@H](C)NC(=O)[C@@H](NC(=O)[C@@H]1CCCN1C(=O)[C@@H](NC(=O)[C@H](CC(C)C)NC(=O)[C@@H](N)CCCCN)[C@@H](C)CC)[C@@H](C)CC)[C@@H](C)O)C(=O)O [NCP-0, K LIPIA SKT CPA GKN LCY KI] (H-KLIPIASKTCPAGKNLCYKI-OH; N-terminus and C-terminus assumed)
[1]
  antimicrobial activity: scarcely active
[2]
  LD90: 100 µg/ml and 46.3 µM
  LD99: > 100 µg/ml and > 46.3 µM
[3]
  LD90: > 100 µg/ml and > 46.3 µM
  LD99: > 200 µg/ml and > 92.6 µM
[4]
  LD90: > 100 µg/ml and > 46.3 µM
  LD99: > 200 µg/ml and > 92.6 µM
[5]; 10 mM NaCl, peptide 12.5 µg/ml
  Antimicrobial activity (% to control): 0%
[5]; 10 mM NaCl, peptide 100 µg/ml
  Antimicrobial activity (% to control): 2%
[5]; [8]
  Antimicrobial activity (% to control): 0%
[5]; 125 mM NaCl, peptide 100 µg/ml
  Antimicrobial activity (% to control): 0%
[5]; [9]
  Antimicrobial activity (% to control): 0%
[5]; 250 mM NaCl, peptide 100 µg/ml
  Antimicrobial activity (% to control): 0%
MRSA ATCC 43300; 10 mM NaCl, peptide 12.5 µg/ml
  Antimicrobial activity (% to control): 0%
MRSA ATCC 43300; 10 mM NaCl, peptide 100 µg/ml
  Antimicrobial activity (% to control): 2%
MRSA ATCC 43300; [8]
  Antimicrobial activity (% to control): 0%
MRSA ATCC 43300; 125 mM NaCl, peptide 100 µg/ml
  Antimicrobial activity (% to control): 0%
MRSA ATCC 43300; [9]
  Antimicrobial activity (% to control): 0%
MRSA ATCC 43300; 250 mM NaCl, peptide 100 µg/ml
  Antimicrobial activity (% to control): 0%
[6]; peptide 3.1 µg/ml
  Antimicrobial activity (% to control): 0%
[6]; peptide 6.3 µg/ml
  Antimicrobial activity (% to control): 0%
[6]; peptide 12.5 µg/ml
  Antimicrobial activity (% to control): 0%
[6]; peptide 100 µg/ml
  Antimicrobial activity (% to control): 0%
E. coli ATCC 25922; peptide 3.1 µg/ml
  Antimicrobial activity (% to control): 0%
E. coli ATCC 25922; peptide 6.3 µg/ml
  Antimicrobial activity (% to control): 0%
E. coli ATCC 25922; peptide 12.5 µg/ml
  Antimicrobial activity (% to control): 0%
E. coli ATCC 25922; peptide 100 µg/ml
  Antimicrobial activity (% to control): 0%
[7]; peptide 3.1 µg/ml
  Antimicrobial activity (% to control): 0%
[7]; peptide 6.3 µg/ml
  Antimicrobial activity (% to control): 0%
[7]; peptide 12.5 µg/ml
  Antimicrobial activity (% to control): 0%
[7]; peptide 100 µg/ml
  Antimicrobial activity (% to control): 0%

— EP3298025B1, “NEW AMINO ACID SEQUENCES WITH MI[…] DERIVED FROM NAJA ATRA CARDIOTOXIN 1 (CTX-1)” (Università degli Studi di Parma, priority 2015, dated 2016)
